# Test system: surgical wound
# Experiment: meperidine subcutaneous infiltration as local anesthetic in exodontia and oral surgery, clinical observation over five years
# Settings: for blood loss per case: used as the local anesthetic
# Excerpt: Normal healing after surgical and third molar procedures can result in painful sequelae up to 14 days after surgery, which frequently require after-hour intervention by the surgeon. Among these sequelae are localized osteotitis (dry socket), trismus, facial edema, and protracted bleeding. For the purposes of this invention, the definition of “healed extraction site” will be a surgical wound that presents as normal clinical dental ridge architecture with pink gingival tissue and without classic granulation tissue, erythema, or edema.
# For subcutaneous injection buccal or labial to extraction sites, meperidine is delivered in a standard insulin syringe pre-loaded with 40 mg meperidine in preservative-free solution (available as 1 cc (100 mg) ampules or 1 cc (100 mg) multidose vials). […] Consequently, early on, the use of meperidine for oral surgery was standardized as preservative-free and limited to low doses of 5-20 mg per extraction site with a maximum of 120 mg for any one individual. […] The surgical procedure also involves the concurrent use of intravenous barbituates (hexibarbitol), 0.2 mg atropine, 2 mg dexarnethasone, and concurrent use of 100% oxygen. Nitrous oxide, 20-40%, may be used intermittently during the case to assist the phobic dental patient through the procedure. Additionally each patient is encouraged to take orally 2000 units of vitamin C (adult dose) the day before surgery and 2000 units per day for 5 days postoperatively. […] (A thiophene local anesthetic has been used on rare occasions.)
# The infiltration process usually includes 5-15 mg in the dental sulcus with 2-3 mg infused in the attached gingiva. No periodontal ligament or intraosseous injection of meperidine is used.
# [1] = healed extraction site, injection during surgery, five year period
smiles,measurement,setting,value
Nc1ccccc1 [aminobenzene],blood loss per case,four impacted third molars,70-150 cc
CCOC(=O)C1(c2ccccc2)CCN(C)CC1 [meperidine],cases presenting with pink surgical site tissue including the mucoperiostial flap,3-4 days post surgery,60-80%
same,post-operative bleeding or wound management problems,"10 months, April 2001 through February 2002, prophylactic antibiotics not always used",No post-operative bleeding or wound management problems developed
same,patients healed before day 5 postoperatively,before the dry socket can occur,80%
same,time after injection at which rapid clotting is seen,during surgery,three
same,time for extraction socket to form a complete clot with no further bleeding,during surgery,2 to 5 min
same,"blood loss per case, rarely went over",four impacted third molars,≤ 20 cc
same,blood loss per case,four impacted third molars,2-10 cc
same,patients in whom healing occurred in 3-4 days,[1],80%
same,patients in whom healing occurred in 5-10 days,[1],5%
same,patients in whom healing occurred in 1 day,[1],15%
same,intraoperatively cardiac monitored arrythmias,"human, in vivo",disappeared
same,laryngiospasms requiring muscle paralyzing agents,"human, in vivo",not experienced
same,paresthesia,"human, in vivo",can occur
same,clinical numbness,"immediate postoperative, infiltration",without any marked clinical numbness
same,post-operative infections,in 5 years,no post-operative infections
same,trismus or temeromandibular joint dysfunction requiring physical therapy,in 5 years,no cases
same,relief of oral surgical pain from extractions,infiltrated subcutaneously buccal or labial to extraction site,clinically relieve oral surgical pain
same,dry sockets,over 5 years,disappeared from the practice
same,time after suturing until clotting satisfactory for discharge,patient with a factor deficiency disease,15 min
same,tissue reaction observed clinically,"solution containing a preservative, subcutaneous injection at extraction sites",excessive facial edema and tissue necrosis
same,nausea,total body dose under 120 mg,rare

# — patent US20080214506A1, “Novel use of ion channel active compound, meperidine, to mediate process of accelerated wound healing” (priority 2002, published 2008)
